Experimental data: PubChem BioAssay AID1919016 (Molecular Pharmacology Branch, DTP, NCI, 2023)
Where “and” joins values, the source holds several entries; their conditions need not be identical. Equal entries are not always repeated. Values belong to the compound of their own block, whether it stands above or below them.

Test system: NCI-H196 complex spheroid growth, percent test/control
Assay: Anticancer human tumor NCI-H196 cell line growth inhibition [AhR];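 also: seven days of drug exposure starting three days after plating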;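 as to viability, T/C: 100% = DMSO vehicle control wells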
Settings: for viability, T/C: stronger effect = lower value
Procedure, shortened: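 Agents were dosed in half-log steps down from roughly clinical Cmax, or from 10 microM where Cmax was unknown, alone and with AhR antagonists. Read-out: percent test/control growth of tumor spheroids containing HUVEC and MSC stromal cells.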

[1] = curve of first compound, second compound 0.1 µM
[2] = curve of first compound, second compound 0.316 µM
[3] = curve of first compound, second compound 1 µM
[4] = curve of first compound, second compound 3.16 µM
[5] = curve of first compound, second compound 10 µM
[6] = second compound 0.1 µM, first compound 0.00949 µM
[7] = second compound 0.1 µM, first compound 0.03 µM
[8] = second compound 0.1 µM, first compound 0.0949 µM
[9] = second compound 0.1 µM, first compound 0.3 µM
[10] = second compound 0.316 µM, first compound 0.00949 µM
[11] = second compound 0.316 µM, first compound 0.03 µM
[12] = second compound 0.316 µM, first compound 0.0949 µM
[13] = second compound 0.316 µM, first compound 0.3 µM
[14] = second compound 1 µM, first compound 0.00949 µM
[15] = second compound 1 µM, first compound 0.03 µM
[16] = second compound 1 µM, first compound 0.0949 µM
[17] = second compound 1 µM, first compound 0.3 µM
[18] = second compound 3.16 µM, first compound 0.00949 µM
[19] = second compound 3.16 µM, first compound 0.03 µM
[20] = second compound 3.16 µM, first compound 0.0949 µM
[21] = second compound 3.16 µM, first compound 0.3 µM
[22] = second compound 10 µM, first compound 0.00949 µM
[23] = second compound 10 µM, first compound 0.03 µM
[24] = second compound 10 µM, first compound 0.0949 µM
[25] = second compound 10 µM, first compound 0.3 µM
[26] = second compound 0.1 µM, first compound 0.0316 µM
[27] = second compound 0.1 µM, first compound 0.1 µM
[28] = second compound 0.1 µM, first compound 0.316 µM
[29] = second compound 0.1 µM, first compound 1 µM
[30] = second compound 0.1 µM, first compound 3.16 µM
[31] = second compound 0.1 µM, first compound 10 µM
[32] = second compound 0.316 µM, first compound 0.0316 µM
[33] = second compound 0.316 µM, first compound 0.1 µM
[34] = second compound 0.316 µM, first compound 0.316 µM
[35] = second compound 0.316 µM, first compound 1 µM
[36] = second compound 0.316 µM, first compound 3.16 µM
[37] = second compound 0.316 µM, first compound 10 µM
[38] = second compound 1 µM, first compound 0.0316 µM
[39] = second compound 1 µM, first compound 0.1 µM
[40] = second compound 1 µM, first compound 0.316 µM
[41] = second compound 1 µM, first compound 1 µM
[42] = second compound 1 µM, first compound 3.16 µM
[43] = second compound 1 µM, first compound 10 µM
[44] = second compound 3.16 µM, first compound 0.0316 µM
[45] = second compound 3.16 µM, first compound 0.1 µM
[46] = second compound 3.16 µM, first compound 0.316 µM
[47] = second compound 3.16 µM, first compound 1 µM
[48] = second compound 3.16 µM, first compound 3.16 µM
[49] = second compound 3.16 µM, first compound 10 µM
[50] = second compound 10 µM, first compound 0.0316 µM
[51] = second compound 10 µM, first compound 0.1 µM
[52] = second compound 10 µM, first compound 0.316 µM
[53] = second compound 10 µM, first compound 1 µM
[54] = second compound 10 µM, first compound 3.16 µM
[55] = second compound 10 µM, first compound 10 µM

SMILES: CCN(c1cc(-c2ccc(CN3CCOCC3)cc2)cc(C(=O)NCc2c(C)cc(C)[nH]c2=O)c1C)C1CCOCC1 + CC(CO)NC(=O)c1cc(-c2ccc(Cl)cc2)nn(-c2cnn(C)c2)c1=O
IC50 [1]: > 3 µM
IC50 [2]: > 3 µM
IC50 [3]: > 3 µM
IC50 [4]: > 3 µM
IC50 [5]: > 3 µM
viability, T/C [6]: 111%
viability, T/C [7]: 111%
viability, T/C [8]: 105%
viability, T/C [9]: 108%
viability, T/C (second compound 0.1 µM, first compound 0.949 µM): 111%
viability, T/C (second compound 0.1 µM, first compound 3 µM): 107%
viability, T/C [10]: 123%
viability, T/C [11]: 118%
viability, T/C [12]: 105%
viability, T/C [13]: 111%
viability, T/C (second compound 0.316 µM, first compound 0.949 µM): 118%
viability, T/C (second compound 0.316 µM, first compound 3 µM): 121%
viability, T/C [14]: 112%
viability, T/C [15]: 116%
viability, T/C [16]: 113%
viability, T/C [17]: 117%
viability, T/C (second compound 1 µM, first compound 0.949 µM): 118%
viability, T/C (second compound 1 µM, first compound 3 µM): 118%
viability, T/C [18]: 121%
viability, T/C [19]: 112%
viability, T/C [20]: 121%
viability, T/C [21]: 112%
viability, T/C (second compound 3.16 µM, first compound 0.949 µM): 123%
viability, T/C (second compound 3.16 µM, first compound 3 µM): 108%
viability, T/C [22]: 120%
viability, T/C [23]: 127%
viability, T/C [24]: 123%
viability, T/C [25]: 115%
viability, T/C (second compound 10 µM, first compound 0.949 µM): 115%
viability, T/C (second compound 10 µM, first compound 3 µM): 124%

SMILES: CC(CO)NC(=O)c1cc(-c2ccc(Cl)cc2)nn(-c2cnn(C)c2)c1=O (configuration not stated)
viability, T/C (compound 1 µM): 105% [middle of 21 runs]
viability, T/C (compound 3.16 µM): 106% [middle of 19 runs]
IC50 (compound alone, run of 08/08/2022): > 10 µM

SMILES: CC(C)CC(NC(=O)C(Cc1ccccc1)NC(=O)c1cnccn1)B(O)O (configuration not stated) + Cc1cncc(-c2nc(NCCc3c[nH]c4ccccc34)c3ncn(C(C)C)c3n2)c1
IC50 [1]: 0.00765 µM
IC50 [2]: 0.00851 µM
IC50 [3]: 0.00735 µM
IC50 [4]: 0.0099 µM
IC50 [5]: 0.00554 µM
viability, T/C (second compound 0.1 µM, first compound 0.000949 µM): 98.2%
viability, T/C (second compound 0.1 µM, first compound 0.003 µM): 109%
viability, T/C [6]: 37.6%
viability, T/C [7]: 1.78%
viability, T/C [8]: 1.16%
viability, T/C [9]: 1.38%
viability, T/C (second compound 0.316 µM, first compound 0.000949 µM): 95.2%
viability, T/C (second compound 0.316 µM, first compound 0.003 µM): 99.1%
viability, T/C [10]: 45%
viability, T/C [11]: 1.25%
viability, T/C [12]: 2.43%
viability, T/C [13]: 1.51%
viability, T/C (second compound 1 µM, first compound 0.000949 µM): 102%
viability, T/C (second compound 1 µM, first compound 0.003 µM): 98.7%
viability, T/C [14]: 36.1%
viability, T/C [15]: 1.32%
viability, T/C [16]: 1.62%
viability, T/C [17]: 0.94%
viability, T/C (second compound 3.16 µM, first compound 0.000949 µM): 105%
viability, T/C (second compound 3.16 µM, first compound 0.003 µM): 103%
viability, T/C [18]: 51.9%
viability, T/C [19]: 0.84%
viability, T/C [20]: 0.89%
viability, T/C [21]: 2.1%
viability, T/C (second compound 10 µM, first compound 0.000949 µM): 83.2%
viability, T/C (second compound 10 µM, first compound 0.003 µM): 95%
viability, T/C [22]: 15.8%
viability, T/C [23]: 0.72%
viability, T/C [24]: 0.96%
viability, T/C [25]: 1.09%

SMILES: O=C(C=Cn1cnc(-c2cc(C(F)(F)F)cc(C(F)(F)F)c2)n1)NNc1cnccn1
viability, T/C (compound 0.00949 µM): 73.6% and 72.9% and 69.5%
viability, T/C (compound 0.03 µM): 63% and 56.7% and 62.2%
viability, T/C (compound 0.0949 µM): 29.8% and 8.08% and 13.8%
viability, T/C (compound 0.3 µM): 8.48% and 5.65% and 9.96%
viability, T/C (compound 0.949 µM): 8.74% and 6.18% and 8.91%
viability, T/C (compound 3 µM): 6.48% and 6.56% and 8.45%
IC50 (curve of compound): 0.0472 µM and 0.0352 µM and 0.0401 µM

Further lines, with some results ahead:

IC50 [1]: 0.787 µM
IC50 [2]: 0.856 µM
IC50 [3]: 0.992 µM
IC50 [4]: 0.765 µM
IC50 [5]: 1.2 µM
SMILES: Nc1ccccc1NC(=O)c1ccc(CNC(=O)OCc2cccnc2)cc1 + Cc1ccccc1N=Nc1ccc(NC(=O)c2ccnn2C)c(C)c1
viability, T/C [26]: 88%
viability, T/C [27]: 78.3%
viability, T/C [28]: 71.9%
viability, T/C [29]: 44.8%
viability, T/C [30]: 15%
viability, T/C [31]: 0.96%
viability, T/C [32]: 85%
viability, T/C [33]: 83.9%
viability, T/C [34]: 73.3%
viability, T/C [35]: 44.9%
viability, T/C [36]: 18.5%
viability, T/C [37]: 1%
viability, T/C [38]: 85.8%
viability, T/C [39]: 89.8%
viability, T/C [40]: 74.9%
viability, T/C [41]: 48.6%
viability, T/C [42]: 20.7%
viability, T/C [43]: 1.92%
viability, T/C [44]: 91.9%
viability, T/C [45]: 80.8%
viability, T/C [46]: 70.5%
viability, T/C [47]: 44%
viability, T/C [48]: 18.5%
viability, T/C [49]: 1.99%
viability, T/C [50]: 88.8%
viability, T/C [51]: 94.7%
viability, T/C [52]: 72.7%
viability, T/C [53]: 55.2%
viability, T/C [54]: 26.5%
viability, T/C [55]: 3.32%

IC50 (curve of compound): 0.00732 µM and 0.0148 µM and 0.00737 µM
SMILES: CC(C)CC(NC(=O)C(Cc1ccccc1)NC(=O)c1cnccn1)B(O)O (configuration not stated)
viability, T/C (compound 0.000949 µM): 98.7% and 106% and 105%
viability, T/C (compound 0.003 µM): 96.1% and 99.1% and 101%
viability, T/C (compound 0.00949 µM): 36.6% and 76.3% and 35.7%
viability, T/C (compound 0.03 µM): 2.1% and 7.38% and 4.57%
viability, T/C (compound 0.0949 µM): 1.67% and 5.37% and 2.7%
viability, T/C (compound 0.3 µM): 2.25% and 4.21% and 2%

IC50 [1]: 1.63 µM
IC50 [2]: 1.77 µM
IC50 [3]: 2.02 µM
IC50 [4]: 1.75 µM
IC50 [5]: 1.81 µM
SMILES: O=C(C=Cc1cccc(S(=O)(=O)Nc2ccccc2)c1)NO + CC(CO)NC(=O)c1cc(-c2ccc(Cl)cc2)nn(-c2cnn(C)c2)c1=O
viability, T/C [26]: 107%
viability, T/C [27]: 92.2%
viability, T/C [28]: 91.3%
viability, T/C [29]: 72.2%
viability, T/C [30]: 21.6%
viability, T/C [31]: 1.02%
viability, T/C [32]: 109%
viability, T/C [33]: 98.1%
viability, T/C [34]: 98.9%
viability, T/C [35]: 71.2%
viability, T/C [36]: 28%
viability, T/C [37]: 0.59%
viability, T/C [38]: 101%
viability, T/C [39]: 99.5%
viability, T/C [40]: 102%
viability, T/C [41]: 83.7%
viability, T/C [42]: 28.5%
viability, T/C [43]: 0.5%
viability, T/C [44]: 108%
viability, T/C [45]: 109%
viability, T/C [46]: 102%
viability, T/C [47]: 74.1%
viability, T/C [48]: 24.3%
viability, T/C [49]: 0.54%
viability, T/C [50]: 119%
viability, T/C [51]: 106%
viability, T/C [52]: 99.9%
viability, T/C [53]: 75.1%
viability, T/C [54]: 26.9%
viability, T/C [55]: 0.56%
